In US10538555B2, “Macrocyclic inhibitors of the PD-1/PD-L1 and CD80(B7-1)/PD-L1 protein/protein interactions” (BRISTOL-MYERS SQUIBB COMPANY, priority 2014, dated 2020) one finds IC50 data, which are given here for 6 compounds.

Where a SMILES comes first, the peptide text is derived from it. Bridges are numbered along the chain shown (N, C = ends). [ ]: non-standard residue; d: D form. ξ: configuration not given here. Trp(1-CH2COOH) = N[C@@H](Cc1cn(CC(=O)O)c2ccccc12)C(=O)O; Phe(3,4,5-F3) = N[C@@H](Cc1cc(F)c(F)c(F)c1)C(=O)O; NMePhe(4-F) = CN[C@@H](Cc1ccc(F)cc1)C(=O)O; Hyp = O=C(O)[C@@H]1C[C@@H](O)CN1; NMeF = CN[C@@H](Cc1ccccc1)C(=O)O; dHyp = O=C(O)[C@H]1C[C@H](O)CN1; NMeNle = CCCC[C@H](NC)C(=O)O; NMeM = CN[C@@H](CCSC)C(=O)O; dPip = O=C(O)[C@H]1CCCCN1; hSer = N[C@@H](CCO)C(=O)O; NMeA = CN[C@@H](C)C(=O)O; Orn = NCCC[C@H](N)C(=O)O; Dab = NCC[C@H](N)C(=O)O; Dap = NC[C@H](N)C(=O)O; ξC = NC(CS)C(=O)O

T1 sequence (Q9NZQ7 with tags, fused parts or gaps): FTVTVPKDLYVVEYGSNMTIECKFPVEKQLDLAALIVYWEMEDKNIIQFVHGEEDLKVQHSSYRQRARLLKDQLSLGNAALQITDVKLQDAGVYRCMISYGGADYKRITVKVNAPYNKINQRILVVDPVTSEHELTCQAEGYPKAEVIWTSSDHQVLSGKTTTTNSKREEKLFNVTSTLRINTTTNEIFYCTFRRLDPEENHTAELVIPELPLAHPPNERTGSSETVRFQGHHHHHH

The assay addresses T1, Human PD-L1/PD-1 (Homo sapiens, UniProt Q9NZQ7).
T1 construct: TVMV protease cleavage site (C); made in house; host or cells: HEK293T cells
In words: HTRF Human PD-L1/PD-1 binding assay (PD-1-Ig/PD-L1-His). Particulars: PD-L1-His 10 nM, PD-1-Ig 20 nM; class symbol; read-out: HTRF Human PD-L1/PD-1 Binding Assay IC50 Range. A digest of the protocol: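 Inhibitors were preincubated 15 min with human PD-L1(18-239)-His (10 nM final), then PD-1(25-167)-Ig (20 nM final) was added for 15 min in dPBS/0.1% BSA/0.05% Tween-20. Eu-cryptate anti-Ig (1 nM) and APC anti-His (20 nM) were added; 665/620 nm ratio read after 30 min.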
For orientation: Time-resolved FRET reads energy transfer from a long-lived donor to a nearby acceptor.
Regarding `CSCC[C@H]1C(=O)N2C[C@H](O)C[C@H]2C(=O)N[C@@H](CC(=O)O)C(=O)N[C@@H](C(C)C)C(=O)N(C)[C@@H](Cc2ccccc2)C(=O)N[C@@H](Cc2ccc(O)cc2)C(=O)N2C[C@H](O)C[C@H]2C(=O)N[C@@H](Cc2c[nH]c3ccccc23)C(=O)N[C@@H](Cc2ccc(O)cc2)C(=O)N[C@@H](CC(C)C)C(=O)N[C@H](C(=O)NCC(N)=O)CSCC(=O)N[C@@H](Cc2ccccc2)C(=O)N(C)[C@@H](Cc2ccccc2)C(=O)N1C` [Example 9166] ({CH2CO}-F[NMeF][NMeM][Hyp]DV[NMeF]Y[Hyp]WYLCG-NH2; thioether N-13), the IC50 fell in the range of 1000 to 10000 nM.

As to `CCCC[C@H]1C(=O)N(C)[C@@H](CCCC)C(=O)N[C@@H](CCN)C(=O)N[C@H](C(=O)NCC(N)=O)CSCC(=O)N[C@@H](Cc2ccc(O)cc2)C(=O)N(C)[C@@H](C)C(=O)N[C@@H](CC(N)=O)C(=O)N2CCC[C@H]2C(=O)N[C@@H](CN)C(=O)N[C@@H](CCC(N)=O)C(=O)N2C[C@H](O)C[C@H]2C(=O)N[C@@H](Cc2c[nH]c3ccccc23)C(=O)N[C@@H](CO)C(=O)N[C@@H](Cc2cn(CC(=O)O)c3ccccc23)C(=O)N1C` [Example 6119] ({CH2CO}-Y[NMeA]NP[Dap]Q[Hyp]WS[Trp(1-CH2COOH)][NMeNle][NMeNle][Dab]CG-NH2; thioether N-14), the IC50 is 1 to 9.9 nM.

For `CCCC[C@H]1C(=O)N[C@@H](CC(N)=O)C(=O)N2CCC[C@H]2C(=O)N[C@@H](CO)C(=O)N[C@@H](CCO)C(=O)N2C[C@H](O)C[C@H]2C(=O)N[C@@H](Cc2c[nH]c3ccccc23)C(=O)N[C@@H](CCO)C(=O)N[C@@H](Cc2c[nH]c3ccccc23)C(=O)N(C)[C@@H](C)C(=O)N(C)[C@@H](C)C(=O)N[C@@H](CCCN)C(=O)NC(C(=O)NCC(N)=O)CSCC(=O)N[C@@H](Cc2ccc(O)cc2)C(=O)N1C` (stereo partly drawn) [Example 10219] ({CH2CO}-Y[NMeNle]NPS[hSer][Hyp]W[hSer]W[NMeA][NMeA][Orn][ξC]G-NH2; thioether N-14), the IC50 was 1000 to 10000 nM.

Regarding `CCCC[C@H]1C(=O)N(C)[C@@H](CCCC)C(=O)N[C@@H](CCCN)C(=O)N[C@H](C(=O)NCC(N)=O)CSCC(=O)N[C@@H](Cc2ccc(OC)cc2)C(=O)N(C)[C@@H](C)C(=O)N[C@@H](CC(N)=O)C(=O)N2CCC[C@H]2C(=O)N[C@@H](Cc2cnc[nH]2)C(=O)N[C@@H](CCC(=O)O)C(=O)N2C[C@H](O)C[C@H]2C(=O)N[C@@H](Cc2c[nH]c3ccccc23)C(=O)N[C@@H](CC(=O)O)C(=O)N[C@@H](Cc2c[nH]c3ccccc23)C(=O)N1C` [Example 7097] ({CH2CO}-Y(Me)[NMeA]NPHE[Hyp]WDW[NMeNle][NMeNle][Orn]CG-NH2; thioether N-14), the IC50 lay within 1 to 9.9 nM.

On to `CCCC[C@H]1C(=O)N2C[C@@H](O)C[C@@H]2C(=O)N[C@@H](CC(=O)O)C(=O)N[C@@H](C(C)C)C(=O)N(C)[C@@H](Cc2ccccc2)C(=O)N[C@@H](CCC(=O)O)C(=O)N2CCCC[C@@H]2C(=O)N[C@@H](Cc2c[nH]c3ccccc23)C(=O)N[C@@H](Cc2ccc(O)cc2)C(=O)N[C@@H](CC(N)=O)C(=O)N[C@H](C(=O)NCC(N)=O)CSCC(=O)N[C@@H](Cc2cc(F)c(F)c(F)c2)C(=O)N(C)[C@@H](Cc2ccc(F)cc2)C(=O)N1C` [Example 10558] ({CH2CO}-[Phe(3,4,5-F3)][NMePhe(4-F)][NMeNle][dHyp]DV[NMeF]E[dPip]WYNCG-NH2; thioether N-13), for which the IC50 is 1 to 9.9 nM.

For `CCCC[C@H]1C(=O)N[C@@H](CC(N)=O)C(=O)N2CCC[C@H]2C(=O)N[C@@H](CO)C(=O)N[C@@H](CCO)C(=O)N2CCC[C@H]2C(=O)N[C@@H](Cc2c[nH]c3ccccc23)C(=O)N[C@@H](CO)C(=O)N[C@@H](Cc2c[nH]c3ccccc23)C(=O)N(C)[C@@H](C)C(=O)N(C)[C@@H](C)C(=O)N[C@@H](CCCCN)C(=O)NC(C(=O)NCC(N)=O)CSCC(=O)N[C@@H](Cc2ccc(O)cc2)C(=O)N1C` (stereo partly drawn) [Example 10208] ({CH2CO}-Y[NMeNle]NPS[hSer]PWSW[NMeA][NMeA]K[ξC]G-NH2; thioether N-14), the IC50 lay in the range of 1000 to 10000 nM.
